Assay results: US10781444B2, “Functional genomics using CRISPR-Cas systems, compositions, methods, screens and applications thereof” (THE BROAD INSTITUTE, INC., priority 2013, dated 2020)

How the values were obtained:
[1] = tested on: on-target and off-target genomic loci (NF2, NF1, MED12 and other top-ranking genes); experiment: Deep sequencing of on-target and off-target loci for allele modification in A375 cells; assay type: cell-based, human; conditions: 7 and 14 days post-transduction
Text: Applicants validated top ranking genes from the GeCKO screen individually using 3-5 sgRNAs (FIGS. 28C-E, 38, 39). […] Applicants compared sgRNA and shRNA-mediated protein depletion and PLX resistance using Western blot (FIG. 28D) and cell growth assays (FIG. 28E). […] Additionally, sgRNAs targeting NF1, MED12, CUL3, TADA1, and TADA2B led to a decrease in protein expression and increased resistance to PLX (FIGS. 38, 39).
Screening timeline considerations: After infection, cells are selected with puromycin. For most cell types, 0.5-2 ug/ml puromycin works well, although the minimum dose that kills all cells without any viral transduction should be determined in advance and the minimum concentration should be used for selection. […] As shown in the deep sequencing of the individual target (array) validations from the PLX resistance screen gene hits, genome modification increases over time. For most targets, genome modification was nearly complete after only 7 days.
Sequencing data analysis and indel detection: Off target loci in the human genome were identified for individual spacers using the CRISPR design tool (available at the website tools.genome-engineering.org). On-target and off-target loci were PCR amplified using Herculase II Fusion polymerase (Agilent), normalized, and pooled in equimolar proportions. Pooled libraries were denatured, diluted to a 14 pM concentration and sequenced using the MiSeq Personal Sequencer (Illumina). Sequencing data was demultiplexed using paired barcodes, aligned to reference amplicons, and analyzed for indels as described previously. Indel length analysis was performed by mapping the distance between multiple short reference sequences in individual reads.

human EMX1 locus = experiment: Surveyor nuclease assay for genome modification at the human EMX1 locus in HEK 293FT cells; assay type: cell-based; conditions: co-expression with EMX1-targeting chimeric crRNA, n=3
Experimental: Mouse neuro2A (N2A) cell line (ATCC) was maintained with DMEM supplemented with 5% fetal bovine serum (HyClone), 2 mM GlutaMAX (Life Technologies), 100 U/mL penicillin, and 100 μg/mL streptomycin at 37° C. with 5% CO2.
Cells were transfected using Lipofectamine 2000 (Life Technologies) following the manufacturer's recommended protocol. For each well of a 24-well plate a total of 800 ng of plasmids were used.
Genomic DNA was extracted using the QuickExtract DNA extraction kit (Epicentre) following the manufacturer's protocol. […] Extracted genomic DNA was immediately processed or stored at −20° C.
The genomic region surrounding a CRISPR target site for each gene was PCR amplified, and products were purified using QiaQuick Spin Column (Qiagen) following manufacturer's protocol. […] After re-annealing, products were treated with Surveyor nuclease and Surveyor enhancer S (Transgenomics) following the manufacturer's recommended protocol, and analyzed on 4-20% Novex TBE poly-acrylamide gels (Life Technologies). […] Quantification was based on relative band intensities, as a measure of the fraction of cleaved DNA.

## MED12_sg2: sgRNA 20 bp sequence CGTCAGCTTCAATCCTGCCA (expressed or natural sequence)
[1]
  off-target modification over time: off-target modification also increases with time

## NF2_sg4: sgRNA 20 bp sequence GTACTGCAGTCCAAAGAACC (expressed or natural sequence)
[1]
  off-target modification over time: off-target modification also increases with time

## NF2_sg5: sgRNA 20 bp sequence CACAGTGGCCTGGCTCAAAA (expressed or natural sequence)
[1]
  on-target genome modification over time: lower modification that increased by 14 days post-transduction

## SpCas9n: SpCas9 nickase with aspartate-to-alanine substitution (D10A) in the RuvC I catalytic domain
Human EMX1 locus
  indels at the EMX1 protospacer target (Surveyor assay): does not generate indels
